Assays:
[1] = target: Sodium/hydrogen exchanger 1 (Homo sapiens, UniProt P19634); experiment: Inhibition of sodium dependent recovery of pH following imposed acidosis in AP1 cell line expressing the human NHE-1 isoform.; assay type: functional, cell-based
[2] = Oral bioavailability in rat (dose 2.8 mg/kg p.o.); assay type: ADME, organism-based; conditions: in vivo
[3] = Plasma half life in rat at oral dose 2.8 mg/mk body weight; assay type: ADME, organism-based

Sodium/hydrogen exchanger 1, sequence (P19634 whole entry, canonical isoform): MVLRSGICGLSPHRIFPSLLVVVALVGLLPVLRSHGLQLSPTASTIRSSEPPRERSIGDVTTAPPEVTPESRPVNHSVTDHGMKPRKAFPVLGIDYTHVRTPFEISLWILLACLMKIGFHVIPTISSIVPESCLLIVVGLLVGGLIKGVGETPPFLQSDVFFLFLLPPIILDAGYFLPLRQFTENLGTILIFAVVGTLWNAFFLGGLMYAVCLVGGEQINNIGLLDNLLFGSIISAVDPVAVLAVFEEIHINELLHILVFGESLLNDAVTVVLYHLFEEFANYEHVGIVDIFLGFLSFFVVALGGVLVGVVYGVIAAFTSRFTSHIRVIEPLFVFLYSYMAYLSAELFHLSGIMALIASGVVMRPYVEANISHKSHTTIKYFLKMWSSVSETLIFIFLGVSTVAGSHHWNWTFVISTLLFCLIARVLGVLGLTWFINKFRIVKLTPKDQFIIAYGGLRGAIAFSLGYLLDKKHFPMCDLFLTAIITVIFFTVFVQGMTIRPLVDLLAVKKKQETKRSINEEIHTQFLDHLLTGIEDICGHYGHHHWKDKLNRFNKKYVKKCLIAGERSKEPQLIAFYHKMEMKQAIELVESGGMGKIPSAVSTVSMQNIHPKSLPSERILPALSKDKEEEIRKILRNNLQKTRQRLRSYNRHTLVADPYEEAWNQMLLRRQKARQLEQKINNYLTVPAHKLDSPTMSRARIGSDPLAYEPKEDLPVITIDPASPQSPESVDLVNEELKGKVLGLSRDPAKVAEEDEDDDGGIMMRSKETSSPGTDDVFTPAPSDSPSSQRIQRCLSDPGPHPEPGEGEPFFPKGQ

| Structure (SMILES) | IC50 [1] [µM] | bioavailability [2] [%] | half-life [3] [h] |
| --- | --- | --- | --- |
| Cc1[nH]cnc1[C@@H]1C(c2cc(Cl)cc(Cl)c2)C1(C)C (single isomer, unassigned) | 0.95 |  |  |
| CC1(C)C(c2cc(Cl)cc(Cl)c2)[C@H]1c1cc(N)nc(N)n1 (single isomer, unassigned) | 3.6 |  |  |
| CC1(C)C(c2cccc(Cl)c2)[C@H]1c1c[nH]c(N)n1 (single isomer, unassigned) | 0.75 |  |  |
| CC1(C)[C@H](c2c[nH]cn2)[C@H]1c1cccc2c1CCO2 | > 30 |  |  |
| Cc1nc(N)[nH]c1[C@@H]1C(c2cccc(Cl)c2)C1(C)C (single isomer, unassigned) | 0.039 | 26 | 5 |
| Cc1[nH]c(N)nc1[C@@H]1[C@@H](c2cccc3c2CCO3)C1(C)C | 2.6 |  |  |
| CC1(C)[C@H](c2nc(N)no2)[C@H]1c1cccc2c1CCO2 | 30 |  |  |
| CSc1nccn1[C@@H]1[C@@H](c2cccc(Cl)c2)C1(C)C | 4.85 |  |  |
| Cc1[nH]cnc1[C@@H]1[C@@H](c2cccc3c2CCO3)C1(C)C | 11 |  |  |
| CC1(C)C(c2cc(Cl)cc(Cl)c2)[C@H]1c1cnc(N)s1 (single isomer, unassigned) | > 30 |  |  |
| CC1(C)C(c2cc(Cl)cc(Cl)c2)[C@H]1c1cnc[nH]1 (single isomer, unassigned) | 4 |  |  |
| CC1(C)C(c2cccc(Cl)c2)[C@H]1c1cnc(N)s1 (single isomer, unassigned) | 8 |  |  |
| CC1(C)[C@H](c2c[nH]c(N)n2)[C@H]1c1cccc2c1CCO2 | 3.8 |  |  |
| CC1(C)C(c2cccc(Cl)c2)[C@H]1C(=O)NC(=N)N (single isomer, unassigned) | 0.021 | 26 | 5 |
| CC1(C)[C@H](c2cnc(N)s2)[C@H]1c1cccc2c1CCO2 | > 30 |  |  |
| Cc1[nH]c(N)nc1[C@@H]1C(c2cc(Cl)cc(Cl)c2)C1(C)C (single isomer, unassigned) | 0.008 |  |  |
| CC1(C)C(c2cc(Cl)cc(Cl)c2)[C@H]1c1c[nH]c(N)n1 (single isomer, unassigned) | 0.18 |  |  |
